Our source for the pest or weed control values is patent publication US10111432B2, “Picolinamide N-oxide compounds with fungicidal activity” (Dow AgroSciences LLC, priority 2016, dated 2018).

The test system of one test is Zymoseptoria tritici. Description: Fungicidal activity: leaf blotch of wheat (SEPTTR), disease control on wheat seedlings. It is filed as in vivo. Particulars: for pest or weed control at 100 ppm: high volume application; for pest or weed control at 121.5 g/ha: low volume application, 121.5 g/H. As for the experimental part:
Technical grades of materials were dissolved in acetone, which were then mixed with nine volumes of water (H2O) containing 110 ppm Triton X-100. The fungicide solutions were applied onto wheat seedlings using an automated booth sprayer to run-off. All sprayed plants were allowed to air dry prior to further handling. All fungicides were evaluated using the aforementioned method for their activity vs. all target diseases, unless stated otherwise. Wheat leaf blotch and brown rust activity were also evaluated using track spray applications, in which case the fungicides were formulated as EC formulations, containing 0.1% Trycol 5941 in the spray solutions. Wheat plants (variety Yuma) were grown from seed in a greenhouse in 50% mineral soil/50% soil-less Metro mix until the first leaf was fully emerged, with 7-10 seedlings per pot. These plants were inoculated with an aqueous spore suspension of Zymoseptoria tritici either prior to or after fungicide treatments. After inoculation the plants were kept in 100% relative humidity (one day in a dark dew chamber followed by two to three days in a lighted dew chamber at 20° C.) to permit spores to germinate and infect the leaf. The plants were then transferred to a greenhouse set at 20° C. for disease to develop. When disease symptoms were fully expressed on the 1st leaves of untreated plants, infection levels were assessed on a scale of 0 to 100 percent disease severity. Percent disease control was calculated using the ratio of disease severity on treated plants relative to untreated plants.

The test system of a further test is Puccinia triticina. Description: Fungicidal activity: wheat brown rust (PUCCRT), disease control on wheat seedlings. It is filed as in vivo. Particulars: for pest or weed control at 100 ppm: high volume application; for pest or weed control at 121.5 g/ha: low volume application, 121.5 g/H. As for the experimental part: Technical grades of materials were dissolved in acetone, which were then mixed with nine volumes of water (H2O) containing 110 ppm Triton X-100. The fungicide solutions were applied onto wheat seedlings using an automated booth sprayer to run-off. All sprayed plants were allowed to air dry prior to further handling. All fungicides were evaluated using the aforementioned method for their activity vs. all target diseases, unless stated otherwise. Wheat leaf blotch and brown rust activity were also evaluated using track spray applications, in which case the fungicides were formulated as EC formulations, containing 0.1% Trycol 5941 in the spray solutions. Wheat plants (variety Yuma) were grown from seed in a greenhouse in 50% mineral soil/50% soil-less Metro mix until the first leaf was fully emerged, with 7-10 seedlings per pot. These plants were inoculated with an aqueous spore suspension of Puccinia triticina either prior to or after fungicide treatments. After inoculation the plants were kept in a dark dew room at 22° C. with 100% relative humidity overnight to permit spores to germinate and infect the leaf. The plants were then transferred to a greenhouse set at 24° C. for disease to develop. Fungicide formulation, application and disease assessment followed the procedures as described in the Example A. Results of the evaluations are shown below in Table 4.

The mark [1] stands for this setting: 24 h, 1 day protectant, read-out: SEPTTR disease control, 1DP, HV activity at 100 ppm.
Where [2] appears, read: 24 h, 1 day protectant, read-out: SEPTTR disease control, 1DP, LV activity at 121.5 g/H.
Setting [3] is: 72 h, 3 day curative, read-out: SEPTTR disease control, 3DC, HV activity at 100 ppm.
[4] abbreviates: 72 h, 3 day curative, read-out: SEPTTR disease control, 3DC, LV activity at 121.5 g/H.
Setting [5] is: 24 h, 1 day protectant, read-out: PUCCRT disease control, 1DP, HV activity at 100 ppm.
Setting [6] is: 24 h, 1 day protectant, read-out: PUCCRT disease control, 1DP, LV activity at 121.5 g/H.
Where [7] appears, read: 72 h, 3 day curative, read-out: PUCCRT disease control, 3DC, HV activity at 100 ppm.
Where [8] appears, read: 72 h, 3 day curative, read-out: PUCCRT disease control, 3DC, LV activity at 121.5 g/H.

The structures appear in SMILES notation. Read-outs that look alike come from different tables or passages of the source.

In the case of `COc1cc[n+]([O-])c(C(=O)N[C@@H](C)C(=O)O[C@@H](C)[C@@H](c2ccc(F)cc2)c2ccc(F)cc2C)c1O` [Compound 29], the pest or weed control at 100 ppm with Zymoseptoria tritici (setting [1]), with Zymoseptoria tritici (setting [3]), with Puccinia triticina (setting [5]) and with Puccinia triticina (setting [7]) was over 80% each time. Moreover, the pest or weed control at 121.5 g/ha with Zymoseptoria tritici (setting [2]) is over 80%; in the test on Zymoseptoria tritici (setting [4]), over 80%; with Puccinia triticina (setting [6]) it was over 80%; in the test on Puccinia triticina (setting [8]) it was at most 80%.
Turning to `COc1ccccc1C(c1ccccc1OC)[C@H](C)OC(=O)[C@H](C)NC(=O)c1c(O)c(OC)cc[n+]1[O-]` [Compound 30], the pest or weed control at 121.5 g/ha with Zymoseptoria tritici (setting [2]) was over 80%; with Zymoseptoria tritici (setting [4]), over 80%; in the test with Puccinia triticina (setting [6]), at most 80%; in the test on Puccinia triticina (setting [8]), at most 80%.
For the compound `COc1cc[n+]([O-])c(C(=O)N[C@@H](C)C(=O)O[C@@H](C)[C@@H](c2ccccc2)c2ccc(F)c(C)c2)c1O` [Compound 31], the pest or weed control at 100 ppm in the test with Zymoseptoria tritici (setting [1]), in the test with Zymoseptoria tritici (setting [3]), in the test with Puccinia triticina (setting [5]) and in the test on Puccinia triticina (setting [7]) was over 80% each time. The pest or weed control at 121.5 g/ha was over 80% in the test on Zymoseptoria tritici (setting [2]), over 80% in the test on Zymoseptoria tritici (setting [4]), over 80% with Puccinia triticina (setting [6]) and at most 80% with Puccinia triticina (setting [8]).
In the case of `CCOc1cc(F)ccc1C(c1ccc(F)cc1OCC)[C@H](C)OC(=O)[C@H](C)NC(=O)c1c(O)c(OC)cc[n+]1[O-]` [Compound 32], the pest or weed control at 121.5 g/ha in the test with Zymoseptoria tritici (setting [2]), in the test with Zymoseptoria tritici (setting [4]) and in the test with Puccinia triticina (setting [6]) was at most 80% in each case.
Turning to `COc1cc[n+]([O-])c(C(=O)N[C@@H](C)C(=O)O[C@@H](C)[C@H](c2ccccc2)c2ccc(C)cc2F)c1O` [Compound 33], the pest or weed control at 121.5 g/ha with Zymoseptoria tritici (setting [2]) was over 80%; with Zymoseptoria tritici (setting [4]), at most 80%; with Puccinia triticina (setting [6]), at most 80%.
`COc1cc[n+]([O-])c(C(=O)N[C@@H](C)C(=O)O[C@@H](C)C(c2ccc(Cl)cc2)c2ccc(Cl)cc2)c1O` [Compound 34]: the pest or weed control at 121.5 g/ha in the test on Zymoseptoria tritici (setting [2]), in the test with Zymoseptoria tritici (setting [4]) and in the test on Puccinia triticina (setting [6]) was over 80% in each case.
In the case of `COc1cccc(C(c2cccc(OC)c2)[C@H](C)OC(=O)[C@H](C)NC(=O)c2c(O)c(OC)cc[n+]2[O-])c1` [Compound 36], the pest or weed control at 121.5 g/ha in the test with Zymoseptoria tritici (setting [2]) and in the test on Puccinia triticina (setting [6]) was at most 80% each time.
As for `COc1cc(Cl)ccc1C(c1ccc(Cl)cc1OC)[C@H](C)OC(=O)[C@H](C)NC(=O)c1c(O)c(OC)cc[n+]1[O-]` [Compound 37], the pest or weed control at 121.5 g/ha was over 80% with Zymoseptoria tritici (setting [2]), at most 80% in the test on Zymoseptoria tritici (setting [4]) and over 80% in the test with Puccinia triticina (setting [6]).
On to `COc1cc[n+]([O-])c(C(=O)N[C@@H](C)C(=O)O[C@@H](C)[C@H](c2ccc(F)cc2)c2ccc(F)cc2C)c1O` [Compound 38], for which the pest or weed control at 121.5 g/ha in the test with Zymoseptoria tritici (setting [2]) was over 80%; in the test with Zymoseptoria tritici (setting [4]) it was over 80%; in the test with Puccinia triticina (setting [6]), at most 80%.
For the compound `COc1cc[n+]([O-])c(C(=O)N[C@@H](C)C(=O)O[C@@H](C)C(c2ccc(C)cc2)c2ccc(C)cc2)c1O` [Compound 39], the pest or weed control at 121.5 g/ha is over 80% in the test on Zymoseptoria tritici (setting [2]), at most 80% in the test with Zymoseptoria tritici (setting [4]) and at most 80% in the test with Puccinia triticina (setting [6]).
